This is an account of results in patent US7776912B2, “Acetals of nepetalic acid and method of preparation” (E.I. du Pont de Nemours and Company, priority 2006, dated 2010).

The test system of the assay is Aedes aegypti mosquitoes. Kind of assay: in vitro Gupta box landing assay (insect repellency). Format: in vivo. Particulars: 1% (w/v) in IPA, mean of three replicates; for % Mean repellency: 25 μl applied to Baudruche membrane over bovine blood, landings recorded over 20 min, (C−T)/C×100 vs IPA control well; for Mean time to first landing / Mean number of total landings: 25 μl on membrane; for Mean time to first landing: about 250 female Aedes aegypti; for Mean number of total landings: recorded at 2 min intervals over 20 min. The procedure:
The products of Examples 1-6 were evaluated for the insect repellency against Aedes aegypti mosquitoes in the in vitro Gupta box landing assay. In this method, a chamber contained 5 wells, each covered by a Baudruche (animal intestine) membrane. Each well was filled with bovine blood, containing sodium citrate (to prevent clotting) and ATP (72 mg ATP disodium salt per 26 ml of blood), and heated to 37° C. A volume of 25 μl of isopropyl alcohol(IPA) containing one test specimen, or DEET as a control, was applied to each membrane. The concentrations were all 1% w/v in IPA except where otherwise indicated. The control was a membrane surface treated with a 1% solution of DEET.
After 5 min, approximately 250 4-day-old female Aedes aegypti mosquitoes were introduced into the chamber. The number of mosquitoes probing the membranes for each treatment was recorded at 2 min intervals over 20 min. Each datum represents the mean of three replicate experiments.
C=the total number of landings on the IPA control well, and
T=the total number of landings on the test solution well.
The % mean repellencies at 1% (w/v) are depicted in Table 2 in addition to mean time to first landing, and mean number of total landings for the nepetalic acid acetals of Examples 1-6 and for DEET as a control.

On to `CCN(CC)C(=O)c1cccc(C)c1` [DEET, N,N-diethyltoluamide, reference compound], for which the “% Mean repellency” value was 68.60%, the “Mean time to first landing” value turned out to be 3.5 min and the “Mean number of total landings” value is 17.7.
Consider `COC1OC(=O)[C@H]2[C@H](CC[C@@H]2C)C1C` (stereo partly drawn) [Example 1, (4aR,7S,7aR)-3-methoxy-4,7-dimethylhexahydrocyclopenta[c]pyran-1(3H)-one], for which the “% Mean repellency” value is reported as 79.30%, the “Mean time to first landing” value was determined as 3.2 min and the “Mean number of total landings” value is recorded as 12.2.
Regarding `CCOC1OC(=O)[C@H]2[C@H](CC[C@@H]2C)C1C` (stereo partly drawn) [Example 2, (4aR,7S,7aR)-3-ethoxy-4,7-dimethylhexahydrocyclopenta[c]pyran-1(3H)-one], the “% Mean repellency” value is 52.40%, the “Mean time to first landing” value was determined as 5.2 min and the “Mean number of total landings” value is given as 26.4.
The corresponding values for `CCCOC1OC(=O)[C@H]2[C@H](CC[C@@H]2C)C1C` (stereo partly drawn) [Example 3, (4aR,7S,7aR)-3-n-propoxy-4,7-dimethylhexahydrocyclopenta[c]pyran-1(3H)-one] are 89.10%, 11.6 min and 5.2.
Consider `CC(C)OC1OC(=O)[C@H]2[C@H](CC[C@@H]2C)C1C` (stereo partly drawn) [Example 4, (4aR,7S,7aR)-3-isopropoxy-4,7-dimethylhexahydrocyclopenta[c]pyran-1(3H)-one], for which the “% Mean repellency” value is 73.20%, the “Mean time to first landing” value is 2.8 min and the “Mean number of total landings” value stood at 30.6.
Take `CCCCOC1OC(=O)[C@H]2[C@H](CC[C@@H]2C)C1C` (stereo partly drawn) [Example 5, (4aR,7S,7aR)-3-n-butoxy-4,7-dimethylhexahydrocyclopenta[c]pyran-1(3H)-one]: the “% Mean repellency” value amounted to 17.80%, the “Mean time to first landing” value is 2.8 min and the “Mean number of total landings” value is on record as 33.8.
On to `CC(C)COC1OC(=O)[C@H]2[C@H](CC[C@@H]2C)C1C` (stereo partly drawn) [Example 6, (4aR,7S,7aR)-3-isobutoxy-4,7-dimethylhexahydrocyclopenta[c]pyran-1(3H)-one], for which the “% Mean repellency” value is on record as 20.40%, the “Mean time to first landing” value was 2.0 min and the “Mean number of total landings” value was found to be 91.6.
